Source: paper PMC8635542, “Pharmacokinetic study on the interaction between succinic acid and irbesartan in rats and its potential mechanism” (Pharmaceutical Biology, 2021)

Tested on: T1, CYP2C9
T1 construct: gene Cyp2c6
Conditions: diclofenac as substrate, NADPH-regenerating system (G-6-P, NADP+, G-6-PDH), MgCl2; succinic acid 0-100 μM

O=C(O)CCC(=O)O [succinic acid]
IC50: 13.9 µM
